pIC50, pKd: −log10 of the molar value.
Columns and labels:
[1] = system: Ba/F3 EML4-ALK G1202R tumors; assay: Ba/F3 EML4-ALK G1202R subcutaneous xenograft model; type: in vivo, SCID/Beige mice; conditions: 75 mg/kg BID orally, 17 days
ARK5 = ARK5 (Homo sapiens, UniProt O60285); assay: KINOMEscan kinase binding assay (DiscoveRx)
Procedure: (§1) Kinase binding assays were performed at DiscoveRx using the general KINOMEscan Kd Protocol (Fabian, M. A. et al., “A small molecule-kinase interaction map for clinical kinase inhibitors,” Nat. Biotechnol. 2005, 23(3):329-36). For most assays, kinase-tagged T7 phage strains were prepared in an E. coli host derived from the BL21 strain. E. coli were grown to log-phase and infected with T7 phage and incubated with shaking at 32° C. until lysis. The lysates were centrifuged and filtered to remove cell debris. The remaining kinases were produced in HEK-293 cells and subsequently tagged with DNA for qPCR detection. […] The liganded beads were blocked with excess biotin and washed with blocking buffer (SeaBlock (Pierce), 1% BSA, 0.05% Tween 20, 1 mM DTT) to remove unbound ligand and to reduce nonspecific binding. […] All reactions were performed in polystyrene 96-well plates in a final volume of 0.135 mL. […] The kinase concentration in the eluates was measured by qPCR.
(§2) Binding constants (Kds) were calculated with a standard dose-response curve using the Hill equation: Response=Background+(Signal−Background)/(1+(Kd^Hill Slope/Dose^Hill Slope)) The Hill Slope was set to −1. Curves were fitted using a non-linear least square fit with the Levenberg-Marquardt algorithm.

FAK = FAK (Homo sapiens, UniProt Q05397); assay: KINOMEscan kinase binding assay (DiscoveRx)
Procedure: as §1, §2

NCI-H2228 cell line = assay: Cell proliferation assay (CellTiter-Glo); type: cell-based; conditions: Homo sapiens, 72 hours, EML4-ALK fusion gene
Procedure: (§3) Two thousand cells per well were seeded in 384 well white plate for 24 hrs, and then treated with compounds for 72 hours (37° C., 5% CO2). Cell proliferation was measured using CellTiter-Glo luciferase-based ATP detection assay (Promega) following the manufactures's protocol. IC50 determinations were performed using GraphPad Prism software (GraphPad, Inc., San Diego, Calif.).

Ba/F3 EML4-ALK WT tumors = assay: Ba/F3 EML4-ALK WT subcutaneous xenograft model; type: in vivo, SCID/Beige mice; conditions: 14 days
Karpas-299 cells = assay: Apoptosis/caspase activity assay; type: cell-based; conditions: 48 hours treatment
Procedure: Karpas-299 cells were maintained in RPMI medium supplemented with 10% fetal bovine serum and antibiotics. Five hundred thousand cells per well were seeded in 12-well plate and various concentration of compounds were introduced and incubated for 48 hrs. The cells were then collected and lysed in a lysis buffer (20 mM HEPES, 150 mM NaCl, 10 mM KCl, 5 mM EDTA, 1% NP40) supplemented with Halt protease and phosphatase inhibitors (Thermo Scientific). For caspase assays, approximately 20 μg of cell lysate were incubated with 20 μl of caspase-3 glo reagent (Promega), and the enzyme activity was measured by the release of luminescence after 20 min incubation at 37° C. For western blotting, cell lysate were boiled and analyzed by SDS-PAGE/immunoblotting using anti-caspase-3 (Cell Signaling Technology), anti-PARP (Cell Signaling Technology), or anti-actin (Cell Signaling Technology) antibodies. Antibodies were typically incubated overnight at 4° C. with gentle shake, followed by washes and incubation with the appropriate HRP-conjugated secondary antibodies. Membranes were incubated with chemiluminescent substrate for 5 min at room temperature (SuperSignal West Femto, Thermo Scientific), and the chemiluminescent images were obtained with a C-DiGit Imaging System (LI-COR Biosciences).

HCC78 cell line = assay: Cell proliferation assay (CellTiter-Glo); type: cell-based; conditions: Homo sapiens, 72 hours, SLC34A2-ROS1 fusion gene
Procedure: as §3

TNK2 = target: T1, TNK2 (Homo sapiens, UniProt Q07912); assay: Biochemical kinase assay (Reaction Biology); conditions: 10 μM ATP
T1 construct: purchased Reaction Biology Corporation (contract assay)
T1 sequence (Q07912 whole entry): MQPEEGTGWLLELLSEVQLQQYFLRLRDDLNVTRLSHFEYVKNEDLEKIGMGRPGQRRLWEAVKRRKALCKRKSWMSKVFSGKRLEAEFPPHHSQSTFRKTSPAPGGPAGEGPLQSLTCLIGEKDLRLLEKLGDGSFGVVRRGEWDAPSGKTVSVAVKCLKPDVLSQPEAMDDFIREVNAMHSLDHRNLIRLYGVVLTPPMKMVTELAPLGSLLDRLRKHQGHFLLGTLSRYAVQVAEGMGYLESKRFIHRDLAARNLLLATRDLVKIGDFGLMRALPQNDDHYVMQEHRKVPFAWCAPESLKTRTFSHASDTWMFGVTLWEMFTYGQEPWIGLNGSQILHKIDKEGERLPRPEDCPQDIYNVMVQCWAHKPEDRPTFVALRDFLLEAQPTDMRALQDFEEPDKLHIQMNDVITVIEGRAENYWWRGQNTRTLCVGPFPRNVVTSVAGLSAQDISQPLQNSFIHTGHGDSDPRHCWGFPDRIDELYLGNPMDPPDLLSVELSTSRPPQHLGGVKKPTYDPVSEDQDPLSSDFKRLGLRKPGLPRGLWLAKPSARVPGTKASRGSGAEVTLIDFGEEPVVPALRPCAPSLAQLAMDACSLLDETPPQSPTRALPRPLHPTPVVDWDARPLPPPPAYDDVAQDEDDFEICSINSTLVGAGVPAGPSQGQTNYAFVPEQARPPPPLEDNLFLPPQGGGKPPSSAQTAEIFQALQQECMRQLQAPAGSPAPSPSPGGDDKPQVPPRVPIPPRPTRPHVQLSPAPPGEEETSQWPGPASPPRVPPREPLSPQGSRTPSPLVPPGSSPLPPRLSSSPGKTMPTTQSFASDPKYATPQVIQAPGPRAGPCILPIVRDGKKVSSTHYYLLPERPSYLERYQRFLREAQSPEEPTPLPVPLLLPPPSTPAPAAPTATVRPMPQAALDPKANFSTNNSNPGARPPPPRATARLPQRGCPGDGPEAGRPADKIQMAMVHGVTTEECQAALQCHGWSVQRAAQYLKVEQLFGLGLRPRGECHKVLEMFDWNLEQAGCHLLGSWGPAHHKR
Procedure: (§4) Specific kinase/substrate pairs along with required cofactors were prepared in reaction buffer; 20 mM Hepes pH 7.5, 10 mM MgCl2, 1 mM EGTA, 0.02% Brij35, 0.02 mg/ml BSA, 0.1 mM Na3VO4, 2 mM DTT, 1% DMSO (for specific details of individual kinase reaction components see Supplementary Table 2). Compounds were delivered into the reaction, followed ˜20 minutes later by addition of a mixture of ATP (Sigma, St. Louis Mo.) and ^33P ATP (Perkin Elmer, Waltham Mass.) to a final concentration of 10 μM. Reactions were carried out at room temperature for 120 min, followed by spotting of the reactions onto P81 ion exchange filter paper (Whatman Inc., Piscataway, N.J.). […] IC50 values and curve fits were obtained using Prism (GraphPad Software).

[2] = system: Ba/F3 TEL-TRKC (ETV6-TRKC) G623R cell line; assay: Cell proliferation assay (CellTiter-Glo); type: cell-based; conditions: Mus musculus, BaF3; 72 hours
YES = target: T2, YES (Homo sapiens, UniProt P07947); assay: Biochemical kinase assay (Reaction Biology); conditions: 10 μM ATP
T2 construct: purchased Reaction Biology Corporation
Procedure: as §4

JAK3 = target: T3, JAK3 (Homo sapiens, UniProt P52333); assay: Biochemical kinase assay (Reaction Biology); conditions: 10 μM ATP
T3 construct: purchased Reaction Biology Corporation (contract assay)
Procedure: as §4

GRK7 = target: T4, GRK7 (Homo sapiens, UniProt Q8WTQ7); assay: Biochemical kinase assay (Reaction Biology); conditions: 10 μM ATP
T4 construct: purchased Reaction Biology Corporation (contract assay)
T4 sequence (Q8WTQ7 whole entry): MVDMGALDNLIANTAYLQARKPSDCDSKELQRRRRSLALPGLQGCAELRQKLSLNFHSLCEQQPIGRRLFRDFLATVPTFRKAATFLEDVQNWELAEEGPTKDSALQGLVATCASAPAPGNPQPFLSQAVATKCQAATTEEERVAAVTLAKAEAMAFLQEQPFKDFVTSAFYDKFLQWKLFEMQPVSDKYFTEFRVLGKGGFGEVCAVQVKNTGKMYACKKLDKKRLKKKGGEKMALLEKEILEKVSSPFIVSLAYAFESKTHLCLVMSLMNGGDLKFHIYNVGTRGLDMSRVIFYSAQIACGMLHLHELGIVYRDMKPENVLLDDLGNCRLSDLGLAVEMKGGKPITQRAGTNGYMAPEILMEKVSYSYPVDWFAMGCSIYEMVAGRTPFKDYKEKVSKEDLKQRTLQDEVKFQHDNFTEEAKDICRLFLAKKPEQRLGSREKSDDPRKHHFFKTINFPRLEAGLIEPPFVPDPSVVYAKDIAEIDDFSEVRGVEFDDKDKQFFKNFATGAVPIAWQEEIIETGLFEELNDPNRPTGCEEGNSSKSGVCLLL
Procedure: as §4

BLK = target: T5, BLK (Homo sapiens, UniProt P51451); assay: Biochemical kinase assay (Reaction Biology); conditions: 10 μM ATP
T5 construct: purchased Reaction Biology Corporation (contract assay)
Procedure: as §4

DDR1 = target: T6, DDR1 (Homo sapiens, UniProt Q08345); assay: Biochemical kinase assay (Reaction Biology); conditions: 10 μM ATP
T6 construct: purchased Reaction Biology Corporation
Procedure: as §4

[3] = system: Ba/F3 SDC4-ROS1 G2032R cell line; assay: Cell proliferation assay (CellTiter-Glo); type: cell-based; conditions: Mus musculus, BaF3; 72 hours
[4] = system: Ba/F3 EML4-ALK L1152P cell line; assay: Cell proliferation assay (CellTiter-Glo); type: cell-based; conditions: Mus musculus, 72 hours
IRR = target: T7, IRR (Homo sapiens, UniProt P14616); assay: Biochemical kinase assay (Reaction Biology); conditions: 10 μM ATP
T7 construct: purchased Reaction Biology Corporation (contract assay)
T7 sequence (P14616 27-1297): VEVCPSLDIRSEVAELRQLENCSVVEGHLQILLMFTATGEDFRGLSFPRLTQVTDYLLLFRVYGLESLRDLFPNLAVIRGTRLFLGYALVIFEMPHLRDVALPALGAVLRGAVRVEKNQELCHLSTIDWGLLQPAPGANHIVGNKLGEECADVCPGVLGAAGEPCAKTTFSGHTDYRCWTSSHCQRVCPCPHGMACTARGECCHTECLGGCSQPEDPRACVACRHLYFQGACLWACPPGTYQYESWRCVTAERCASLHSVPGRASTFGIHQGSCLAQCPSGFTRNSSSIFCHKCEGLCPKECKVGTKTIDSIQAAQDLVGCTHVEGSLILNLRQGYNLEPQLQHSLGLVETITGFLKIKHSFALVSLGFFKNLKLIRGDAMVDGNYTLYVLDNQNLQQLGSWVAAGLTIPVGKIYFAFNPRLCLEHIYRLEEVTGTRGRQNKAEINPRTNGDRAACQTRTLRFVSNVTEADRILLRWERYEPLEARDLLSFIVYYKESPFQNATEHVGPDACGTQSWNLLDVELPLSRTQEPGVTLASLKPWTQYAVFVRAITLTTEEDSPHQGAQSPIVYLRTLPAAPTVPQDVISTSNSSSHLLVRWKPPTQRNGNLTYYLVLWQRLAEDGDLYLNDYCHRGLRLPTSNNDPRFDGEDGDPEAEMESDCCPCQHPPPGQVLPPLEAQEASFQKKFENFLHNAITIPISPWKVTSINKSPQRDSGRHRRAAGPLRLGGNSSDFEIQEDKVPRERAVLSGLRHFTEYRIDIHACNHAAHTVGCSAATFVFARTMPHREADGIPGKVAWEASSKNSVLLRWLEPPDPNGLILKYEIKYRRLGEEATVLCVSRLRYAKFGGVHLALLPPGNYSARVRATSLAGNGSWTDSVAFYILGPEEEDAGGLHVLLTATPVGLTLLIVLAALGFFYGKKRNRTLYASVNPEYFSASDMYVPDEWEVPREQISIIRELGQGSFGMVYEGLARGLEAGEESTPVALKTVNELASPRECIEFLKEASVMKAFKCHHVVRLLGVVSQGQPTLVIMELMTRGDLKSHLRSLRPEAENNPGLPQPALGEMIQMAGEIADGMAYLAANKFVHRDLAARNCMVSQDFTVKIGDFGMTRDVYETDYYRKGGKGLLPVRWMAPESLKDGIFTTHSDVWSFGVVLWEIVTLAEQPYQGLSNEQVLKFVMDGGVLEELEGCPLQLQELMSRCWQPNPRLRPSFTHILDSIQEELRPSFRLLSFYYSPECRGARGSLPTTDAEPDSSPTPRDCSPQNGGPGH
Procedure: as §4

EPHA1 = target: T8, EPHA1 (Homo sapiens, UniProt P21709); assay: Biochemical kinase assay (Reaction Biology); conditions: 10 μM ATP
T8 construct: purchased Reaction Biology Corporation (contract assay)
Procedure: as §4

BTK = target: T9, BTK (Homo sapiens, UniProt Q06187); assay: Biochemical kinase assay (Reaction Biology); conditions: 10 μM ATP
T9 construct: purchased Reaction Biology Corporation (contract assay)
Procedure: as §4

AXL = target: T10, AXL (Homo sapiens, UniProt P30530); assay: Biochemical kinase assay (Reaction Biology); conditions: 10 μM ATP
T10 construct: purchased Reaction Biology Corporation (contract assay)
T10 sequence (P30530 26-894): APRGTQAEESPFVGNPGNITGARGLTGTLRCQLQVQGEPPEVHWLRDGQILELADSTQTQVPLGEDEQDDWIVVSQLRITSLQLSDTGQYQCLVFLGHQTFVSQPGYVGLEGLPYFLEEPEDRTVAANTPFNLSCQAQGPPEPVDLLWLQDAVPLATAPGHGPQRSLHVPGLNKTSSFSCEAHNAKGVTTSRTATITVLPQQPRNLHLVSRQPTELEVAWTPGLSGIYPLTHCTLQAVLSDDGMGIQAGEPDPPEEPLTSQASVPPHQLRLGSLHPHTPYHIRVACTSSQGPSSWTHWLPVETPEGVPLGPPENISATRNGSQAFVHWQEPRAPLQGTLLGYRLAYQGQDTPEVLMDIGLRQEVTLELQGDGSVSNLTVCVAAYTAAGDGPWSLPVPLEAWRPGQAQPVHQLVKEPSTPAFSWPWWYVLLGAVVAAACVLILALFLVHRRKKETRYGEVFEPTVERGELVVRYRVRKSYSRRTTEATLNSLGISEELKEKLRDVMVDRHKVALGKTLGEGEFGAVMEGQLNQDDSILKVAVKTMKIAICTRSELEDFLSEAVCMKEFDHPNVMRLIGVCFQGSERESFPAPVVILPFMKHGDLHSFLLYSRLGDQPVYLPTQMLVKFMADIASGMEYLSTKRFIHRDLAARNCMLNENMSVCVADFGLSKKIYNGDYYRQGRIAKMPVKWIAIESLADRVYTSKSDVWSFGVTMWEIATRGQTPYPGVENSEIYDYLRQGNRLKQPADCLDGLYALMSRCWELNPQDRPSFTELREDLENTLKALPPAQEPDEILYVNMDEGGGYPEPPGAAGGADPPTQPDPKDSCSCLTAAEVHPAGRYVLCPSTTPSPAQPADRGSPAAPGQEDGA
Procedure: as §4

Karpas 299 tumors = assay: Karpas 299 ALCL subcutaneous xenograft model; type: in vivo, SCID/Beige mice; conditions: 50 mg/kg BID orally, seven days
Procedure: Female athymic nude mice and SCID/Beige mice (5-8 weeks of age) were obtained from Charles River Laboratory and were housed in Innovive IVC disposable cages on HEPA filtered ventilated racks with ad libitum access to rodent chow and water. Five million cells in 100 μL, serum-free medium were implanted subcutaneously in the right flank region of the mouse. […] Tumor size and body weight were measured on designated days. Tumor size was measured with an electronic caliper and tumor volume was calculated as the product of length*width^2*0.5.
The control group of mice were given vehicle only. […] In the case of TMVTreated Last Day of Treatment<TMVTreated First Day of Treatment, tumor regression (REG) was calculated as 100%*(1−TMVTreated Last Day of Treatment/TMVTreated First Day of Treatment).

IGFR = target: T11, IGFR (Homo sapiens, UniProt P08069); assay: Biochemical kinase assay (Reaction Biology); conditions: 10 μM ATP
T11 construct: purchased Reaction Biology Corporation (contract assay)
Procedure: as §4

RET = target: T12, RET (Homo sapiens, UniProt P07949); assay: Biochemical kinase assay (Reaction Biology); conditions: 10 μM ATP
T12 construct: purchased Reaction Biology Corporation (contract assay)
Procedure: as §4

MARK3 = target: T13, MARK3 (Homo sapiens, UniProt P27448); assay: Biochemical kinase assay (Reaction Biology); conditions: 10 μM ATP
T13 construct: purchased Reaction Biology Corporation (contract assay)
T13 sequence (P27448 whole entry): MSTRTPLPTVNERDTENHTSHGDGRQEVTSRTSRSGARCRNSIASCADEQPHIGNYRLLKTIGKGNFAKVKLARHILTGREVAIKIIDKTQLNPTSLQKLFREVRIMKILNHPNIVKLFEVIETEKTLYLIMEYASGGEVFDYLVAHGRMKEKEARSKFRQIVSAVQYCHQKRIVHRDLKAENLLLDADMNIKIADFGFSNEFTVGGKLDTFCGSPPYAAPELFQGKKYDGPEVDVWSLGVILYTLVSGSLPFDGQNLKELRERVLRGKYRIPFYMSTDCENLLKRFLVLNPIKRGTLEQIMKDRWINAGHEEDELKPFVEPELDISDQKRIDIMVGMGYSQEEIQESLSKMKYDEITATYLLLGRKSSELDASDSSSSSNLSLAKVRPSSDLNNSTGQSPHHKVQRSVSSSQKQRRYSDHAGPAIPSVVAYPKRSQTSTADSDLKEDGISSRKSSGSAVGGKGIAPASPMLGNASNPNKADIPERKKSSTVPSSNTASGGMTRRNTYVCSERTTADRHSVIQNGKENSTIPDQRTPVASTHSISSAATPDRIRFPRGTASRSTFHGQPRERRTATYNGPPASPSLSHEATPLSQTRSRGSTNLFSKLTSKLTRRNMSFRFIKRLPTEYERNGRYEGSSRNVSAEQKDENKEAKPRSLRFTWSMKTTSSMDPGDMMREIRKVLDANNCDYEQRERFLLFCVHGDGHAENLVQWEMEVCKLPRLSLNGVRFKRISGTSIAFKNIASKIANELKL
Procedure: as §4

HCK = target: T14, HCK (Homo sapiens, UniProt P08631); assay: Biochemical kinase assay (Reaction Biology); conditions: 10 μM ATP
T14 construct: purchased Reaction Biology Corporation (contract assay)
T14 sequence (P08631 whole entry): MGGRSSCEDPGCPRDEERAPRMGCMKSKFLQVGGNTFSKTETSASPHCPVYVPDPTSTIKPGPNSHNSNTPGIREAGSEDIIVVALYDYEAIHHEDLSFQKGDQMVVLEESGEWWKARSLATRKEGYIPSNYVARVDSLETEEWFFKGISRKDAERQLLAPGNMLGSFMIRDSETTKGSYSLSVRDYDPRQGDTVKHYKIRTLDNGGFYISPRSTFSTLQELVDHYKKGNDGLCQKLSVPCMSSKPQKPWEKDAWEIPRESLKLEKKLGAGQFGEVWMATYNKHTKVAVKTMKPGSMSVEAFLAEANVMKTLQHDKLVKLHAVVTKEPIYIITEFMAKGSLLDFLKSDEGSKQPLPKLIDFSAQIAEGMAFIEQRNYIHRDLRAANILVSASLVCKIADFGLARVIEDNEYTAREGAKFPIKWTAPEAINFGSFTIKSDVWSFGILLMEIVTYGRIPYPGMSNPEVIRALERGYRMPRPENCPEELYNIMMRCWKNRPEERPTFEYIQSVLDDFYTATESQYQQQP
Procedure: as §4

Ba/F3 + IL3 parental = assay: Cell proliferation assay (CellTiter-Glo); type: cell-based; conditions: Mus musculus, BaF3; parental cells with IL3
[5] = system: Ba/F3 TPR-ALK wild type cell line; assay: Cell proliferation assay at Advanced Cellular Dynamics (CellTiter-Glo); type: cell-based; conditions: Mus musculus, BaF3, 48 hours
[6] = system: Ba/F3 EML4-ALK C1156Y cell line; assay: Cell proliferation assay (CellTiter-Glo); type: cell-based; conditions: Mus musculus, 72 hours

For `C[C@H]1CNC(=O)c2cnn3ccc(nc23)N[C@H](C)c2cc(F)ccc2O1` [Compound 1, (7S,13R)-11-fluoro-7,13-dimethyl-6,7,13,14-tetrahydro-1,15-ethenopyrazolo[4,3-f][1,4,8,10]benzoxatriazacyclotridecin-4(5H)-one], the “mice exhibiting tumor regression” value [1] was 4 of 8, the pKd (ARK5) was 8.43 and the pKd (FAK) was 7.57. The pIC50 (NCI-H2228 cell line) was 7.14, the “Tumor growth inhibition (TGI)” value (Ba/F3 EML4-ALK WT tumors; 15 mg/kg/BID orally) was 74% and the “mice exhibiting tumor regression” value (Ba/F3 EML4-ALK WT tumors; 75 mg/kg BID orally) was 6 of 8. The “tumor regression (REG)” value (Ba/F3 EML4-ALK WT tumors; 75 mg/kg BID orally) was 54%, the “apoptosis of Karpas-299 cells (caspase 3/7 glo, PARP western blotting)” value (Karpas-299 cells) was “increased the number of apoptotic Karpas-299 cells” and the pIC50 (HCC78 cell line) was 9.52. The pIC50 (TNK2) was 7.62, the pIC50 [2] was 8.52 and the pIC50 (YES) was 8.67. For the same molecule, the pIC50 (JAK3) was 7.30, the pIC50 (GRK7) was 7.45 and the pIC50 (BLK) was 7.49. For the same molecule, the pIC50 (DDR1) was 8.24, the pIC50 [3] was 8.30 and the pIC50 [4] was 7.07. The pIC50 (IRR) was 7.74, the pIC50 (EPHA1) was 7.60 and the pIC50 (BTK) was 7.63. For the same molecule, the pIC50 (AXL) was 6.83, the “mice exhibiting tumor regression” value (Karpas 299 tumors) was 4 of 8 and the pIC50 (IGFR) was 6.95. It also gave a pIC50 (RET) of 7.33, a pIC50 (MARK3) of 6.29 and a pIC50 (HCK) of 7.79. For the same molecule, the pIC50 (Ba/F3 + IL3 parental) was 5.91, the pIC50 [5] was 7.92 and the pIC50 [6] was 7.01.
